Results on 9 molecules are retold here after patent US20190345536A1, “DETECTION METHOD FOR CHROMOSOMAL ABNORMALITIES AND METHOD FOR EVALUATING INDUCIBILITY” (Sumitomo Chemical Company, Limited, priority 2016, published 2019).

The subject of data set [1] is human iPS cell-derived T lymphocyte.
For data set [2] the test system is unchanged. The experiment in a line: In vitro comet assay using human iPS cell-derived T lymphocyte (Example 6). The data set is classed as cell-based. The procedure:
As human iPS cell-derived T lymphocyte, redifferentiated T lymphocyte derived from human iPS cell line “2” described in Example 1(1) was used. […] A test substance was used at the treatment dose (final concentration in medium) described in Table 9. For the treatment, a test substance was dissolved in PBS at a 100-fold concentration of the final concentration in the medium for addition at 1% (v/v). A test substance was treated according to the process described in (4). […] Each well was washed twice with 1 mL of PBS, redifferentiated T lymphocytes derived from human iPS cell line described in (1) were suspended in Rh-medium at a cell density of 2.0×10^6 cells/mL and added to each well. After about 13 hr of culture, the total amount of the cell suspension was recovered by pipetting. The cell suspension was diluted with Rh-5 medium to a cell density of 2.0×10^5 cells/mL and reseeded in a 24 well plate not coated with the antibody at 1 mL per well, and culture was continued. Treatments with EMS and MAN were performed according to the method described below. That is, after about 24 hr from the reseeding in (3), a solution (10 μL) obtained by dissolving a test substance in PBS at a 100-fold concentration of the final concentration described in Table 9 was further added and the cells were treated for 4 hr. […] On completion of the additional culture, a part of the cell suspension was separated and the number of the cells was measured using a counting chamber. […] The prepared specimen was stained for nucleic acid using SYBR (registered trade mark) Gold, and observed under a fluorescence microscope at 200-fold magnification. 75 nuclei per specimen and 150 nuclei in two specimens per condition were imaged, % tail DNA was calculated using an image analyzer Comet Assay IV, and DNA damaging activity was determined. The % tail DNA was calculated as a percentage of the fluorescence brightness of the tail to the fluorescence brightness of the whole cell nucleus. […]

The test system is the same in data set [3]. The experiment in a line: In vitro chromosomal aberration test using human iPS cell-derived T lymphocyte (Example 5). The data set is classed as cell-based. The protocol: As human iPS cell-derived T lymphocyte, redifferentiated T lymphocyte derived from human iPS cell line “2” described in Example 1(1) was used. […] A test substance was used at the treatment dose (final concentration in medium) described in Table 7. For the treatment, a test substance was dissolved in PBS at a 100-fold concentration of the final concentration in the medium for addition at 1% (v/v). Treatment with a test substance was performed according to the process described in (4). […] After about 14 hr of culture, the total amount of the cell suspension was recovered by pipetting. The cell suspension was diluted with Rh-5 medium to a cell density of 2.0×10^5 cells/mL and reseeded in a 12 well plate not coated with the antibody at 2 mL per well, and culture was continued. Treatments with MMC, EMS and MAN were performed according to the method described below. That is, after about 24 hr from the reseeding in (3), a solution (20 μL) obtained by dissolving a test substance in PBS at a 100-fold concentration of the final concentration described in Table 5 was further added and the cells were treated for 27 hr. Different from a test substance treatment group, PBS (20 μL) was added and a similar treatment was performed for 27 hr to prepare a negative control group. About 2 hr before completion of the treatment, KaryoMAX (registered trade mark) Colcemid™ Solution in HBSS (Life technologies) (20 μL) was added to the well (final concentration in medium: 0.1 μg/mL) to discontinue the cell cycle, and cells in mitotic metaphase were enriched. At the time of start of the test substance treatment, a part of the cell suspension of the negative control group was separated and the number of the cells was measured using a counting chamber. […] All remaining cell suspension was collected in a centrifuge tube and PBS was added to a total volume of 5 mL, after which the mixture was centrifuged (1000 rpm, 5 min). The supernatant was removed, 75 mM KCl heated to 37° C. was added and a hypotonic treatment was performed for 5 min. To the cell suspension after the hypotonicity was added 1/5 volume of a fixation solution (methanol:glacial acetic acid=3:1), and the cells were semi-fixed and centrifuged (4° C., 1000 rpm, 3 min). After centrifugation, the supernatant was substituted with a fresh fixation solution, and the cells were fixed and centrifuged (4° C., 1000 rpm, 3 min). The operation was repeated 3 times, and the cells were sufficiently fixed and centrifuged again (4° C., 1000 rpm, 3 min). The cells were suspended in a small amount of a fixation solution. […] Chromosomal abnormalities were classified into chromatid break, chromosome break, chromatid exchange, chromosome exchange, and other structural abnormalities and counted. […]

Data set [4] shares this test system. The experiment in a line: Proliferation ability of human iPS cell-derived T lymphocyte by various proliferation stimulation factors (ATP amount, CellTiter-Glo; Comparative Example 1). The format is cell-based. In general terms: Cellular ATP, detected with luciferase, serves as a proxy for viable cell number.
For data set [5] the following is noted: from known documents (Kirkland 2016; Lasne 1984); cited from earlier work.
The conditions of data set [6]: from known documents (Kirkland 2016; Lasne 1984); cited from earlier work. The source holds these as a separate data set.
For data set [7] the following is noted: from known documents (Kirkland 2016; Lasne 1984; Aardema 2006); cited from earlier work.
In data set [8] the test system is human iPS cell-derived T lymphocyte. The experiment in a line: Division kinetics of human iPS cell-derived T lymphocyte stimulated with PHA (CytoB, CBPI; Comparative Example 2). The data set is classed as cell-based. Particulars: CytoB 24 hr.
The test system of data set [9] is human peripheral blood-derived mononuclear cells PBMC (feeder cell, 35Gy X-ray). The experiment in a line: Division kinetics of feeder cells alone under PHA stimulation (comparison control, Comparative Example 2). The format is cell-based. Particulars: feeder cell only, 5 μg/mL PHA, CytoB 24 hr.
Setting [10] is: iPS cell line 2, 27 hr treatment, doses of Table 7, 300 metaphase cells, Fisher's exact test.
The mark [11] stands for this setting: proliferation stimulation for 66 hr.
Where [12] appears, read: absence of feeder cells, 3 μg/mL PHA, 426 cells observed.
The mark [13] stands for this setting: coculture with feeder cells, 5 μg/mL PHA, 500 cells observed.

Read-outs that look alike come from different tables or passages of the source.

On to `O=P1(N(CCCl)CCCl)NCCCO1` (centres unmarked) [CPA, cyclophosphamide monohydrate], for which the “judgment result obtained in this Example (in vitro micronucleus test)” value in [1] is given as “positive”.
Take `CCOS(C)(=O)=O` [EMS, ethyl methanesulfonate]: in [2], the “judgment result obtained in this Example (in vitro comet assay)” value is “positive”. For the same molecule, the “judgment result obtained in this Example (in vitro micronucleus test)” value in data set [1] is listed as “positive”. Moreover, the “judgment result obtained in this Example (in vitro chromosomal aberration test)” value in data set [3] is recorded as “positive”.
With `C[C@H](CCC(=O)O)C[C@H](C)C[C@H](C)C(=O)/C=C(\O)[C@H](C)C[C@H](C)C/C=C/[C@@H](C)[C@@H](O)[C@@H](C)[C@@H](O)C[C@@H]1CC[C@@](C)([C@H]2CC[C@@](C)([C@@H](C)O)O2)O1` [Ionomycin], in data set [4], the “proliferation of human iPS cell-derived T lymphocyte by proliferation stimulation” value (from here on “proliferation … by proliferation stimulation”) is “does not proliferate”.
In the case of `OC[C@@H](O)[C@@H](O)[C@H](O)[C@H](O)CO` [MAN, D(−)-mannitol], the “judgment result expected from known information (in vitro chromosomal aberration test)” value in data set [5] is listed as “negative”. Moreover, the “judgment result expected from known information (in vitro comet assay)” value in data set [6] is “negative”. In addition, the “increase in % tail DNA” value in data set [2] (all doses (FIG. 14)) is listed as “no statistically significant increase”. Further, in data set [2] (iPS cell line 2, 4 hr treatment, doses of Table 9, % tail DNA, Dunnett's test), the “judgment result obtained in this Example (in vitro comet assay)” value is “negative”. In [1], the “increase in frequency of micronucleus” value is “no statistically significant increase” and the “judgment result obtained in this Example (in vitro micronucleus test)” value is “negative”. Moreover, the “judgment result expected from known information (in vitro micronucleus test)” value in [7] was “negative”. The “increase in frequency of chromosomal aberration” value in data set [3] (all doses (FIG. 12)) is “no statistically significant increase”. Also, in data set [3] (setting [10]), the “judgment result obtained in this Example (in vitro chromosomal aberration test)” value is “negative”.
As to `CO[C@@]12[C@H](COC(N)=O)C3=C(C(=O)C(C)=C(N)C3=O)N1C[C@@H]1N[C@@H]12` [MMC, mitomycin C], the “judgment result expected from known information (in vitro chromosomal aberration test)” value in data set [5] was “positive”. Further, in data set [1], the “judgment result obtained in this Example (in vitro micronucleus test)” value was “positive”. Also, the “judgment result obtained in this Example (in vitro chromosomal aberration test)” value in data set [3] (setting [10]) is recorded as “positive”.
As for `CCCCCCCCCCCCCC(=O)O[C@@H]1[C@@H](C)[C@@]2(O)[C@@H](C=C(CO)C[C@]3(O)C(=O)C(C)=C[C@@H]23)[C@@H]2C(C)(C)[C@]12OC(C)=O` [PMA, phorbol 12-myristate 13-acetate], in [4], the “luminescent signal (count)” value is given as 5784 count, the “proliferation … by proliferation stimulation” value is recorded as “does not proliferate” and the proliferation rate amounted to 4.5%.
For Concanavalin A [Con A], the “luminescent signal (count)” value in data set [4] (5 μg/mL Con A, 66 hr, background subtracted) was determined as 10064 count. In data set [4] (5 μg/mL Con A, 66 hr, percentage of signal at seeding), this molecule displayed a proliferation rate of 7.8%. Also, in data set [4] (setting [11]), the “proliferation … by proliferation stimulation” value is reported as “does not proliferate”.
bleomycin sulfate [BLM]: the “judgment result obtained in this Example (in vitro micronucleus test)” value in [1] was “positive”.
Regarding phytohemagglutinin [PHA], the CBPI in data set [8] (absence of feeder cells, 3 μg/mL PHA) amounted to 1.39; in data set [8] (coculture with feeder cells, 5 μg/mL PHA), 1.15; in data set [9], 1.03. Also, the binucleated cell number in data set [8] (setting [12]) stood at 160; in data set [8] (setting [13]) it was 71; in data set [9] (500 cells observed), 11. Moreover, the mononucleated cell number in [8] (setting [12]) is recorded as 262; in [8] (setting [13]) it was 426; in data set [9] (500 cells observed) it was 488. For the same molecule, the multinucleated cell number came to 4 in [8] (setting [12]), 3 in data set [8] (setting [13]) and 1 in data set [9] (500 cells observed). Moreover, the “luminescent signal (count)” value was determined as 10984 count in data set [4] (1 μg/mL PHA, 66 hr, background subtracted) and 15024 count in data set [4] (5 μg/mL PHA, 66 hr, background subtracted). Also, the proliferation rate in data set [4] (1 μg/mL PHA, 66 hr, percentage of signal at seeding) turned out to be 8.5%; in data set [4] (5 μg/mL PHA, 66 hr, percentage of signal at seeding), 11.7%. Also, the “proliferation … by proliferation stimulation” value in data set [4] (setting [11]) is on record as “does not proliferate”.
